What was measured:
[1] = HPLC-based chemical stability at different pH; settings: for chemical stability (in words): acidic conditions, pH 1, 37 °C
human NLRP3-NACHT domain = human NLRP3-NACHT domain (Homo sapiens, UniProt Q96P20); settings: presence of ADP
[2] = cited from earlier work
interleukin-1β = settings: cell-based interleukin-1β assay; cited from earlier work

human NLRP3-NACHT domain, sequence (Q96P20 220-536 limits assumed): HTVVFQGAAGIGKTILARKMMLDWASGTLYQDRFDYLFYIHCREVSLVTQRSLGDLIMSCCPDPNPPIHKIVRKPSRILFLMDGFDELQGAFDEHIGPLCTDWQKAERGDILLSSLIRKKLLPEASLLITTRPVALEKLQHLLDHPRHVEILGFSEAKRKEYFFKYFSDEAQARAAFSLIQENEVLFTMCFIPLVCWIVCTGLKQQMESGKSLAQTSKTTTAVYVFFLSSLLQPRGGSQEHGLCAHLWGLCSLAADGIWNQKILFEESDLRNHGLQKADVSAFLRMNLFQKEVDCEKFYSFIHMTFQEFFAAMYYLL

O=C(Nc1c2c(cc3c1CCC3)CCC2)NS(=O)(=O)c1ccco1 [Compound 3, N-((1,2,3,5,6,7-Hexahydro-s-indacen-4-yl)carbamoyl)furan-2-sulfonamide]
chemical stability (in words) [1]: unstable

O=C(Nc1c2c(cc3c1CCCC3)CCCC2)NS(=O)(=O)c1ccccc1 [Compound 7, N-((1,2,3,4,5,6,7,8-Octahydroanthracen-9-yl)carbamoyl)benzenesulfonamide]
NLRP3 binding by SPR (in words) (human NLRP3-NACHT domain): total loss of binding ability | chemical stability (in words) [1]: similarly unstable

O=C(Nc1c2c(cc3c1CCC3)CCC2)NS(=O)(=O)c1cccs1 [Compound 4, N-((1,2,3,5,6,7-Hexahydro-s-indacen-4-yl)carbamoyl)thiophene-2-sulfonamide]
fold shorter half-life than benzene analogue ([1]; pH 1, 4 versus 8, 6 versus 9): 12 fold

CC(C)(O)c1csc(S(=O)(=O)NC(=O)Nc2c3c(cc4c2CCC4)CCC3)c1 [Compound 2, N-((1,2,3,5,6,7-Hexahydro-s-indacen-4-yl)carbamoyl)-4-(2-hydroxypropan-2-yl)thiophene-2-sulfonamide]
chemical stability (in words) [1]: similarly stable

CC(C)S(=O)(=O)NC(=O)Nc1c2c(cc3c1CCC3)CCC2 [Compound 5, N-((1,2,3,5,6,7-Hexahydro-s-indacen-4-yl)carbamoyl)propane-2-sulfonamide]
chemical stability (in words) [1]: unstable

CC(C)(O)c1coc(S(=O)(=O)NC(=O)Nc2c3c(cc4c2CCC4)CCC3)c1 [Compound 1, N-((1,2,3,5,6,7-Hexahydro-s-indacen-4-yl)carbamoyl)-4-(2-hydroxypropan-2-yl)furan-2-sulfonamide]
plasma half-life [2]: 3.27 h | IC50 (interleukin-1β): 7.5 nM
